Experimental data reported in PMC4393181, “The Chemopotential Effect of Annona muricata Leaves against Azoxymethane-Induced Colonic Aberrant Crypt Foci in Rats and the Apoptotic Effect of Acetogenin Annomuricin E in HT-29 Cells: A Bioassay-Guided Approach” (PLoS ONE, 2015).
≈ marks a conversion by molar mass, not a printed value. Like-named read-outs stand apart in the source and are kept apart here.

Columns and labels:
[1] = tested on: CCD841 (normal human colon epithelial cells); experiment: MTT assay on CCD841 cells; format: cell-based; settings: Homo sapiens, mean ± SEM of three experiments, read-out: IC50
Method: (§1) CCD841 (normal human colon epithelial cells) and HT-29 (human colon cancer cells) were purchased from the American Type Cell Collection (ATCC, Manassas, VA, USA). The cells were maintained at 37°C in a humidified atmosphere of 5% CO2. The culture medium consisted of Dulbecco’s Modified Eagles medium (Sigma) that was supplemented with 10% Fetal Bovine Serum (PAA Laboratories, Pasching, […]), 100 μg/ml streptomycin (Sigma) and 100 U/ml penicillin (Sigma). The untreated medium containing 0.1% vehicle DMSO was applied as the negative control for all of the assays in the in vitro study.
(§2) Cell viability analysis was performed using the MTT assay as described previously. In brief, cells (5 × 10^4 cells/ml) at the exponential phase of growth were seeded in a 96-well plate and treated with serial concentrations of the tested agent (0.62, 1.25, 2.5, 5, 10, 20, 40 and 80 μg/ml) for 12, 24 and 48 h. 5-FU, a standard anticancer drug, was used as a positive control in this assay. After incubation, 20 μl of the MTT solution (5.0 mg/ml, Sigma) was loaded into each well, and the cells were further incubated at 37°C for 4 h. DMSO (150 μl) was then used to dissolve the formazan crystals. The cytotoxicity against cancer and normal cells was measured at the absorbance of 570 nm using an ELISA reader (Asys UVM340, Eugendorf, Austria). The data were then processed, and the antiproliferative potential of the tested agents was expressed as IC50 values, the concentration that causes a 50% inhibition of cell growth.

Bax = experiment: Immunohistochemistry of colon tissue sections for Bax; format: in vivo, Sprague Dawley rats; settings: AOM-induced rats; EEAML both doses (250 and 500 mg/kg), 5-FU 35 mg/kg
Method: (§3) Immunohistochemical evaluation of proliferating cell nuclear antigen (PCNA), Bax and Bcl-2 proteins was performed on deparaffinized tissue sections using the commercial Dako ARK Peroxidase kit (DAKO, Carpinteria, CA, USA) according to the vendor’s instructions. In brief, the antigen retrieval process of tissue sections was performed using 10 mM citrate buffer (pH 6.0); the tissue sections were then washed with PBS and blocked with peroxidase blocking buffer. Next, the tissue sections were incubated with diluted mouse PCNA (1:100, Cat: ab2426), Bax (1:100, Cat: ab7977) and Bcl-2 (1:100, Cat: ab7973) antibodies (Abcam, Cambridge, MA, USA) for 15 min. All of the slides were then incubated with the appropriate amount of streptavidin-HRP for 30 min at room temperature. The slides were developed with a diaminobenzidine (DAB) substrate-chromogen system and were counterstained in hematoxylin. The measurement of the PCNA labeling index (PI) was calculated using the formula below.

Bcl-2 = experiment: Immunohistochemistry of colon tissue sections for Bcl-2; format: in vivo, Sprague Dawley rats; settings: AOM-induced rats; EEAML both doses (250 and 500 mg/kg), 5-FU 35 mg/kg
Method: as §3

AOM-induced colonic ACF = experiment: Counting of AOM-induced colonic aberrant crypt foci (methylene blue staining); format: in vivo, Sprague Dawley rats; settings: group E
Method: The experiment was performed as previously described in detail. Thirty male rats (n = 6 per group) in five groups (negative control, cancer control, low dose of EEAML, high dose of EEAML and treatment control) were subcutaneously injected once a week for two consecutive weeks according to the “Induction” column in Table 1. Then, all of the rodents were orally fed once a day for two months based on the experimental design (Table 1), except for the treatment control group, which was intra-peritoneally injected with 35 mg/kg of 5-FU (Sigma, St. Louis, MO, USA) for five consecutive days. The condition of the animals was observed every morning throughout the experimental period.
To determine the intensity of colonic ACF formation after 10 weeks of injection with AOM, ACF counting was performed as previously described in detail. In brief, rats were anesthetized with a high dose of ketamine (30 mg/kg, 100 mg/mL) and xylazine (3 mg/kg, 100 mg/mL) under aseptic conditions. The excised colon was flushed with phosphate buffered saline (PBS, Sigma), opened longitudinally and fixed flat between filter papers overnight at 4°C using 10% buffered formalin. Equal lengths of the proximal and distal portions of the fixed colons were stained with 0.5% methylene blue solution. After washing away the excess stain, topographic analysis was performed under a light microscope (Nikon, Tokyo, Japan) to score the total number of ACF, as well as the number of crypts per focus.

[2] = tested on: HT-29 (human colon cancer cells); experiment: MTT assay on HT-29 cells; format: cell-based; settings: Homo sapiens, mean ± SEM of three experiments, read-out: IC50
Method: as §1, §2

PCNA = experiment: Immunohistochemistry of colon tissue sections, PCNA labeling index; format: in vivo, Sprague Dawley rats; settings: 5-FU 35 mg/kg, colon tissue of AOM-induced rats (cancer control PI 81%, negative control 4%)
Method: as §3
PI = number of positive cells/total number of epithelial cells ×100

[3] = 5-FU 35 mg/kg intra-peritoneally for five consecutive days, AOM-induced rats

O=c1[nH]cc(F)c(=O)[nH]1 [5-FU, 5-fluorouracil]
IC50 ([1]; CCD-841, CCD841, 12 h): 58.5 ± 2.09 µg/mL (≈ 450 µM) | IC50 ([1]; CCD-841, CCD841, 24 h): 44.4 ± 2.25 µg/mL (≈ 341 µM) | IC50 ([1]; CCD-841, CCD841, 48 h): 36.3 ± 0.43 µg/mL (≈ 279 µM) | Bax expression in colon tissues (Bax): up-regulation | Bcl-2 expression in colon tissues (Bcl-2): down-regulation | No. of crypts per ACF: 1 crypt (AOM-induced colonic ACF; [3]): 12 ± 0.26 | No. of crypts per ACF: 2 crypt (AOM-induced colonic ACF; [3]): 6 ± 0.45 | No. of crypts per ACF: 3 crypt (AOM-induced colonic ACF; [3]): 7 ± 0.78 | No. of crypts per ACF: 4 crypt and more (AOM-induced colonic ACF; [3]): 4 ± 0.18 | Total ACF (AOM-induced colonic ACF; [3]): 29 ± 1.40 | Inhibition of ACF formation (AOM-induced colonic ACF; 5-FU 35 mg/kg intra-peritoneally, compared with cancer control): 79.5% | IC50 ([2]; HT-29, 12 h): 4.85 ± 0.38 µg/mL (≈ 37.3 µM) | IC50 ([2]; HT-29, 24 h): 2.96 ± 0.43 µg/mL (≈ 22.8 µM) | IC50 ([2]; HT-29, 48 h): 1.5 ± 0.17 µg/mL (≈ 11.5 µM) | PCNA labeling index (PI) (PCNA): 24%
